From PubChem BioAssay AID248 (DTP/NCI, 2004)
Values joined by “and” are separate entries in the source; they are usually repeats but may differ in a detail not shown here. Equal entries are not always repeated. Toxic doses and inconclusive results are not listed. Rule as the data show it: active = T/C of 150% or more; inactive = T/C below 125%.

Tested on: L1210 leukemia ip in BDF1 mice, survival T/C
Test: NCI In Vivo Anticancer Drug Screen. Data for tumor model L1210 Leukemia (intraperitoneal) in B6D2F1 (BDF1) mice
Conditions: endpoint: mean survival time, higher = longer survival
How it was run: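 Transplanted-tumor mice were given test agent; controls received vehicle only. Survival readings from the two groups were divided (treated over control).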

[1] = dose: 100.0 mg/kg/injection, schedule: Q04DX003 (ip), vehicle: Klucel (hydroxypropylcellulose) (HPC)
[2] = dose: 200.0 mg/kg/injection, schedule: Q04DX003 (ip), vehicle: Klucel (hydroxypropylcellulose) (HPC)
[3] = dose: 400.0 mg/kg/injection, schedule: Q04DX003 (ip), vehicle: Klucel (hydroxypropylcellulose) (HPC)
[4] = dose: 100.0 mg/kg/injection, schedule: Q01DX009 (ip), vehicle: saline with Tween-80
[5] = dose: 200.0 mg/kg/injection, schedule: Q01DX009 (ip), vehicle: saline with Tween-80
[6] = dose: 400.0 mg/kg/injection, schedule: Q01DX009 (ip), vehicle: saline with Tween-80
[7] = dose: 25.0 mg/kg/injection, schedule: Q04DX003 (ip), vehicle: saline
[8] = dose: 50.0 mg/kg/injection, schedule: Q04DX003 (ip), vehicle: saline
[9] = dose: 100.0 mg/kg/injection, schedule: Q01DX009 (ip), vehicle: saline
[10] = dose: 100.0 mg/kg/injection, schedule: Q04DX003 (ip), vehicle: saline
[11] = dose: 100.0 mg/kg/injection, schedule: Q01DX001 (ip), vehicle: saline
[12] = dose: 200.0 mg/kg/injection, schedule: Q01DX001 (ip), vehicle: saline
[13] = dose: 400.0 mg/kg/injection, schedule: Q01DX001 (ip), vehicle: saline
[14] = dose: 100.0 mg/kg/injection, schedule: Q04DX002 (ip), vehicle: saline
[15] = dose: 200.0 mg/kg/injection, schedule: Q04DX002 (ip), vehicle: saline
[16] = dose: 400.0 mg/kg/injection, schedule: Q04DX002 (ip), vehicle: saline
[17] = dose: 100.0 mg/kg/injection, schedule: Q04DX002 (ip), vehicle: saline with Tween-80
[18] = dose: 200.0 mg/kg/injection, schedule: Q04DX002 (ip), vehicle: saline with Tween-80

Measured: T/C

CCCCCCCCCCCCCCCSc1ccc2ccccc2c1
inactive: [1] 92 % of control | [2] 91 % of control | [3] 92 % of control

O=C1Cc2ccccc21
inactive: [4] 97 % of control | dose: 100.0 mg/kg/injection, schedule: Q04DX003 (ip), vehicle: saline with Tween-80 95 % of control | [5] 97 % of control | dose: 200.0 mg/kg/injection, schedule: Q04DX003 (ip), vehicle: saline with Tween-80 94 % of control | [6] 96 % of control | dose: 400.0 mg/kg/injection, schedule: Q04DX003 (ip), vehicle: saline with Tween-80 98 % of control

CCCCCCCCCC(=O)NO
inactive: [7] 102 % of control | [8] 98 % of control | dose: 100.0 mg/kg/injection, schedule: Q01DX001 (ip), vehicle: other 97 % of control | [9] 87 % of control | [1] 93 % of control | [10] 86 % of control and 92 % of control | dose: 200.0 mg/kg/injection, schedule: Q01DX001 (ip), vehicle: other 97 % of control | dose: 200.0 mg/kg/injection, schedule: Q01DX009 (ip), vehicle: saline 98 % of control | [2] 93 % of control | dose: 200.0 mg/kg/injection, schedule: Q04DX003 (ip), vehicle: saline 88 % of control | dose: 400.0 mg/kg/injection, schedule: Q01DX001 (ip), vehicle: other 95 % of control | [3] 91 % of control | dose: 400.0 mg/kg/injection, schedule: Q04DX003 (ip), vehicle: saline 86 % of control

CC1CCCC(C)N1N (stereo not drawn)
inactive: dose: 100.0 mg/kg/injection, schedule: Q01DX001 (ip), vehicle: saline with Tween-80 97 % of control | dose: 200.0 mg/kg/injection, schedule: Q01DX001 (ip), vehicle: saline with Tween-80 93 % of control | dose: 400.0 mg/kg/injection, schedule: Q01DX001 (ip), vehicle: saline with Tween-80 95 % of control

COc1ccc(C(=O)c2cc3cccc(OC)c3o2)cc1OC
inactive: dose: 75.0 mg/kg/injection, schedule: Q01DX009 (ip), vehicle: saline 87 % of control | [11] 102 % of control | dose: 150.0 mg/kg/injection, schedule: Q01DX009 (ip), vehicle: saline 92 % of control | [12] 94 % of control | dose: 300.0 mg/kg/injection, schedule: Q01DX009 (ip), vehicle: saline 93 % of control | [13] 93 % of control

N#Cc1ccsc1C#N
inactive: dose: 100.0 mg/kg/injection, schedule: Q04DX003 (ip), vehicle: acetone 109 % of control

CCOC(=O)C(=O)O
inactive: dose: 25.0 mg/kg/injection, schedule: Q01DX009 (ip), vehicle: saline 96 % of control | dose: 50.0 mg/kg/injection, schedule: Q01DX009 (ip), vehicle: saline 103 % of control | [9] 96 % of control | [14] 106 % of control | [15] 109 % of control | [16] 97 % of control

CN(C)C1=CS(=O)(=O)C1
inactive: dose: 75.0 mg/kg/injection, schedule: Q01DX001 (ip), vehicle: saline 94 % of control | dose: 150.0 mg/kg/injection, schedule: Q01DX001 (ip), vehicle: saline 97 % of control

c1ccc2sccc2c1
inactive: [4] 110 % of control | [5] 111 % of control | [6] 116 % of control

Cc1c2ccccc2cc2c1ccc1cccc(F)c12
inactive: dose: 12.5 mg/kg/injection, schedule: Q01DX009 (ip), vehicle: saline with Tween-80 107 % of control | dose: 25.0 mg/kg/injection, schedule: Q01DX009 (ip), vehicle: saline with Tween-80 104 % of control | dose: 50.0 mg/kg/injection, schedule: Q01DX009 (ip), vehicle: saline with Tween-80 96 % of control

O=[N+]([O-])C1CCC(C2=CSC3CCCCC3N2)CC1 (stereo not drawn)
inactive: [17] 90 % of control | [18] 101 % of control | dose: 400.0 mg/kg/injection, schedule: Q04DX002 (ip), vehicle: saline with Tween-80 116 % of control

CCC(CS(=O)(=O)O)[N+](=O)[O-] (stereo not drawn)
inactive: [14] 96 % of control | [15] 96 % of control | [16] 107 % of control

O=C(O)/C(=N\Nc1ccccc1)c1ccccc1
inactive: dose: 50.0 mg/kg/injection, schedule: Q01DX001 (ip), vehicle: saline 107 % of control | [11] 96 % of control | [12] 110 % of control | [13] 90 % of control

O=S(=O)(O)c1cccnc1
inactive: dose: 19.63 mg/kg/injection, schedule: Q01DX Z (ip), vehicle: carboxymethylcellulose (CMC) 102 % of control | dose: 39.25 mg/kg/injection, schedule: Q01DX Z (ip), vehicle: carboxymethylcellulose (CMC) 93 % of control | dose: 78.5 mg/kg/injection, schedule: Q01DX Z (ip), vehicle: carboxymethylcellulose (CMC) 92 % of control | [11] 102 % of control | dose: 157.0 mg/kg/injection, schedule: Q01DX Z (ip), vehicle: carboxymethylcellulose (CMC) 91 % of control | [12] 98 % of control | [13] 98 % of control

Nc1ncnc2[nH]c(=O)[nH]c12
inactive: [7] 105 % of control | [8] 102 % of control | [10] 98 % of control

CCCCCc1cc[n+](CC(O)c2ccccc2)cc1 (stereo not drawn)
inactive: [11] 94 % of control

CCCCSc1ccc2c(cc1=O)C(N)CCc1cc(OC)c(OC)c(OC)c1-2 (stereo not drawn)
inactive: dose: 12.5 mg/kg/injection, schedule: Q04DX002 (ip), vehicle: saline 104 % of control | dose: 25.0 mg/kg/injection, schedule: Q04DX002 (ip), vehicle: saline 88 % of control | dose: 50.0 mg/kg/injection, schedule: Q04DX002 (ip), vehicle: saline 95 % of control

O=C(c1ccc2cc(Cl)c(Cl)cc2c1)C(Cl)Cl
inactive: dose: 25.0 mg/kg/injection, schedule: Q04DX002 (ip), vehicle: Klucel (hydroxypropylcellulose) (HPC) 90 % of control | dose: 50.0 mg/kg/injection, schedule: Q04DX002 (ip), vehicle: Klucel (hydroxypropylcellulose) (HPC) 108 % of control | dose: 100.0 mg/kg/injection, schedule: Q04DX002 (ip), vehicle: Klucel (hydroxypropylcellulose) (HPC) 93 % of control and 98 % of control

O=C(O)CNc1cccnc1
inactive: dose: 25.0 mg/kg/injection, schedule: Q01DX009 (ip), vehicle: Klucel (hydroxypropylcellulose) (HPC) 95 % of control | dose: 50.0 mg/kg/injection, schedule: Q01DX009 (ip), vehicle: Klucel (hydroxypropylcellulose) (HPC) 100 % of control | dose: 100.0 mg/kg/injection, schedule: Q01DX009 (ip), vehicle: Klucel (hydroxypropylcellulose) (HPC) 101 % of control

COc1ccc(NC(=O)Nc2cccc(C(F)(F)F)c2)c(OC)c1
inactive: dose: 100.0 mg/kg/injection, schedule: Q01DX009 (ip), vehicle: gum acacia 102 % of control | dose: 200.0 mg/kg/injection, schedule: Q01DX009 (ip), vehicle: gum acacia 98 % of control | dose: 400.0 mg/kg/injection, schedule: Q01DX009 (ip), vehicle: gum acacia 101 % of control

Ic1ccc2c(c1)OCCOCCOCCOCCO2
inactive: dose: 50.0 mg/kg/injection, schedule: Q04DX002 (ip), vehicle: saline with Tween-80 102 % of control | [17] 102 % of control | [18] 107 % of control

CCCCC(C)C(=O)Nc1cccc(O)c1 (stereo not drawn)
inactive: [4] 92 % of control | [5] 92 % of control | [6] 90 % of control

Cc1[nH]c(=O)[nH]c(=O)c1CCO
inactive: [11] 96 % of control | [12] 102 % of control | [13] 100 % of control
